# Data from patent US10076519B2 (CYTOKINETICS, INC., priority 2010, dated 2018).
# Test system: rabbit skeletal myofibrils (fast skeletal myofibrils)
# Assay: Activation of fast skeletal myofibrils (PUMA assay, PK/LDH-coupled ATPase at pCa25)
# Format: biochemical
# Settings: AC1.4 determined according to the procedure of Example 39; reported as class symbols
# Outline: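 ATPase activity of Triton-washed rabbit skeletal myofibrils, roughly 90% fast fibres, tracked by NADH loss at 340 nm through a PK/LDH-coupled ADP-regenerating system. Calcium set to 25% of maximal activity (pCa25), in PIPES 12 mM pH 6.8 with 2 mM MgCl2 and 1 mM DTT; AC1.4 reported.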
row,Mean AC1.4,SMILES
1,B (B=1-10 uM),CC(C)(CNc1ccc(-c2cccc(CN)c2)nn1)c1ccc(F)cc1 [{6-[3-(aminomethyl)phenyl]pyridazin-3-yl}[2-(4-fluorophenyl)-2-methylpropyl]amine]
2,A (A=<1 uM),CCNc1n[nH]c2ccc(-c3ccc(NCC(C)(C)c4ccc(F)cc4)nn3)cc12 [{6-[3-(ethylamino)(1H-indazol-5-yl)]pyridazin-3-yl}[2-(4-fluorophenyl)-2-methylpropyl]amine]
3,A (A=<1 uM),CCNc1n[nH]c2ccc(-c3ccc(NCC4(c5ccccn5)CCC4)nn3)cc12 [{6-[3-(ethylamino)(1H-indazol-5-yl)]pyridazin-3-yl}[(2-pyridylcyclobutyl)methyl]amine]
4,A (A=<1 uM),CCNc1n[nH]c2ccc(-c3ccc(NCC4(c5ncccc5F)CCC4)nn3)cc12 [{6-[3-(ethylamino)(1H-indazol-5-yl)]pyridazin-3-yl}{[(3-fluoro(2-pyridyl))cyclobutyl]methyl}amine]

# Same assay, conditions: median AC1.4 class, procedure of Example 39
row,SMILES,Mean AC1.4
1,CC(C)NC(=O)c1ccc(F)c(-c2ccc(NC[C@]3(c4ncccc4F)C[C@H](F)C3)nn2)c1 [{4-fluoro-3-[6-({[3-fluoro-1-(3-fluoro(2-pyridyl))cyclobutyl]methyl}ami-no)pyridazin-3-yl]phenyl}-N-(methylethyl)carboxamide],A (A=<1 uM)
2,CS(=O)(=O)Nc1n[nH]c2ccc(-c3ccc(NC[C@]4(c5ncccc5F)C[C@H](F)C4)nn3)cc12 [{5-[6-({[3-fluoro-1-(3-fluoro(2-pyridyl))cyclobutyl]methyl}ami-no)pyridazin-3-yl](1H-indazol-3-yl)}(methylsulfonyl)amine],A (A=<1 uM)

# Second part, the molecule after the results:
row,Mean AC1.4,SMILES
1,D (D=>20 uM),CS(=O)(=O)Nc1nccc(-c2ccc(NCC3(c4ncccc4F)CCC3)nn2)n1 [{4-[6-({[(3-fluoro(2-pyridyl))cyclobutyl]methyl}ami-no)pyridazin-3-yl]pyrimidin-2-yl}(methylsulfonyl)amine]
2,A (A=<1 uM),CNC(=O)c1ccc(F)c(-c2ccc(NC[C@]3(c4ncccc4F)C[C@H](F)C3)nn2)c1 [{4-fluoro-3-[6-({[3-fluoro-1-(3-fluoro(2-pyridyl))cyclobutyl]methyl}ami-no)pyridazin-3-yl]phenyl}-N-methylcarboxamide]
3,D (D=>20 uM),"NCCn1nnc(-c2ccc(NCC3(c4ncccc4F)CCC3)nn2)n1 [{6-[2-(2-aminoethyl)(1,2,3,4-tetraazol-5-yl)]pyridazin-3-yl}{[(3-fluoro(2-pyridyl))cyclobutyl]methyl}amine]"
4,C (C=10-20 uM),NCc1ccc(F)cc1-c1ccc(NCC2(c3ncccc3F)CCC2)nn1 [{6-[2-(aminomethyl)-5-fluorophenyl]pyridazin-3-yl} {[(3-fluoro(2-pyridyl))cyclobutyl]methyl}amine]
5,D (D=>20 uM),NCc1ccccc1-c1ccc(NCC2(c3ncccc3F)CCC2)nn1 [{6-[2-(aminomethyl)phenyl]pyridazin-3-yl}{[(3-fluoro(2-pyridyl))cyclobutyl]methyl}amine]
6,B (B=1-10 uM),NCc1ccc(-c2ccc(NCC3(c4ncccc4F)CCC3)nn2)cc1 [{6-[4-(aminomethyl)phenyl]pyridazin-3-yl}{[(3-fluoro(2-pyridyl))cyclobutyl]methyl}amine]
7,B (B=1-10 uM),"NC(c1cnc(-c2ccc(NCC3(c4ncccc4F)CCC3)nn2)s1)C(F)(F)F (centres unmarked) [{6-[5-(1-amino-2,2,2-trifluoroethyl)(1,3-thiazol-2-yl)]pyridazin-3-yl}{[(3-fluoro(2-pyridyl))cyclobutyl]methyl}amine]"
8,D (D=>20 uM),"NC1(c2cnc(-c3ccc(NCC4(c5ncccc5F)CCC4)nn3)s2)COC1 [{6-[5-(3-aminooxetan-3-yl)(1,3-thiazol-2-yl)]pyridazin-3-yl}{[(3-fluoro(2-pyridyl))cyclobutyl]methyl}amine]"

# Same assay, conditions: median AC1.4 reported as class; procedure of Example 39
row,SMILES,Mean AC1.4
1,"CN(C)C(=O)c1ccc(F)c(-c2ccc(NC[C@]3(c4ncccc4F)C[C@H](F)C3)nn2)c1 [{4-fluoro-3-[6-({[3-fluoro-1-(3-fluoro(2-pyridyl))cyclobutyl]methyl}ami-no)pyridazin-3-yl]phenyl}-N,N-dimethylcarboxamide]",B (B=1-10 uM)
2,CN1CC(NC(=O)c2ccc(F)c(-c3ccc(NC[C@]4(c5ncccc5F)C[C@H](F)C4)nn3)c2)C1 [{4-fluoro-3-[6-({[3-fluoro-1-(3-fluoro(2-pyridyl))cyclobutyl]methyl}ami-no)pyridazin-3-yl]phenyl}-N-(1-methylazetidin-3-yl)carboxamide],B (B=1-10 uM)
3,"O=C(NCC(F)(F)F)c1ccc(F)c(-c2ccc(NC[C@]3(c4ncccc4F)C[C@H](F)C3)nn2)c1 [{4-fluoro-3-[6-({[3-fluoro-1-(3-fluoro(2-pyridyl))cyclobutyl]methyl}ami-no)pyridazin-3-yl]phenyl}-N-(2,2,2-trifluoroethyl)carboxamide]",B (B=1-10 uM)
4,CNC(=O)c1cc(-c2ccc(NC[C@]3(c4ncccc4F)C[C@H](F)C3)nn2)c(F)cc1O [{4-fluoro-5-[6-({[3-fluoro-1-(3-fluoro(2-pyridyl))cyclobutyl]methyl}ami-no)pyridazin-3-yl]-2-hydroxyphenyl}-N-methylcarboxamide],A (A=<1 uM)
5,"CN(C)C(=O)c1cc(-c2ccc(NC[C@]3(c4ncccc4F)C[C@H](F)C3)nn2)ccc1O [{5-[6-({[3-fluoro-1-(3-fluoro(2-pyridyl))cyclobutyl]methyl}ami-no)pyridazin-3-yl]-2-hydroxyphenyl}-N,N-dimethylcarboxamide]",B (B=1-10 uM)
6,CNC(=O)c1cc(-c2ccc(NC[C@]3(c4ncccc4F)C[C@H](F)C3)nn2)ccc1O [{5-[6-({[3-fluoro-1-(3-fluoro(2-pyridyl))cyclobutyl]methyl}ami-no)pyridazin-3-yl]-2-hydroxyphenyl}-N-methylcarboxamide],B (B=1-10 uM)
7,CNC(=O)c1cc2cc(-c3ccc(NC[C@]4(c5ncccc5F)C[C@H](F)C4)nn3)ccc2[nH]1 [{5-[6-({[3-fluoro-1-(3-fluoro(2-pyridyl))cyclobutyl]methyl}ami-no)pyridazin-3-yl]indol-2-yl}-N-methylcarboxamide],A (A=<1 uM)

# Further lines, results first:
row,Mean AC1.4,SMILES
1,B (B=1-10 uM),OCc1cccc(-c2ccc(NC[C@]3(c4ncccc4F)C[C@H](F)C3)nn2)c1 [{3-[6-({[3-fluoro-1-(3-fluoro(2-pyridyl))cyclobutyl]methyl}ami-no)pyridazin-3-yl]phenyl}methan-1-ol]
2,B (B=1-10 uM),CNC(=O)c1cccc(-c2ccc(NCC3(c4ncccc4F)CCC3)nn2)c1 [{3-[6-({[(3-fluoro(2-pyridyl))cyclobutyl]methyl}ami-no)pyridazin-3-yl]phenyl}-N-methylcarboxamide]
3,B (B=1-10 uM),CNC(=O)c1ccc(O)c(-c2ccc(NCC3(c4ncccc4F)CCC3)nn2)c1 [{3-[6-({[(3-fluoro(2-pyridyl))cyclobutyl]methyl}amino)pyr-idazin-3-yl]-4-hydroxyphenyl}-N-methylcarboxamide]
4,A (A=<1 uM),CNC(=O)c1ccc(F)c(-c2ccc(NCC3(c4ncccc4F)CCC3)nn2)c1 [{4-fluoro-3-[6-({[(3-fluoro(2-pyridyl))cyclobutyl]methyl}ami-no)pyridazin-3-yl]phenyl}-N-methylcarboxamide]
5,B (B=1-10 uM),CNC(=O)c1ccc(-c2ccc(NCC3(c4ncccc4F)CCC3)nn2)s1 [{5-[6-({[(3-fluoro(2-pyridyl))cyclobutyl]methyl}ami-no)pyridazin-3-yl](2-thienyl)}-N-methylcarboxamide]
